# Where “and” joins values, the source holds several entries; their conditions need not be identical. Equal values may be shown once. Inconclusive results and toxic doses are left out.
# System: CD2F1 mice, L1210 leukemia ip, survival T/C
# Experiment: NCI In Vivo Anticancer Drug Screen. Data for tumor model L1210 Leukemia (intraperitoneal) in CD2F1 (CDF1) mice
# Details: higher = longer survival
# In short: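 Vehicle-treated tumor-bearing mice served as controls (C) for compound-treated mice (T). Reported figure is T divided by C.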
# [1] = endpoint: mean survival time, dose: 100.0 mg/kg/injection, schedule: Q01DX009 (ip), vehicle: other
# [2] = endpoint: mean survival time, dose: 200.0 mg/kg/injection, schedule: Q01DX009 (ip), vehicle: other
# [3] = endpoint: mean survival time, dose: 100.0 mg/kg/injection, schedule: Q01DX001 (ip), vehicle: saline with Tween-80
# [4] = endpoint: mean survival time, dose: 200.0 mg/kg/injection, schedule: Q01DX001 (ip), vehicle: saline with Tween-80
# [5] = endpoint: mean survival time, dose: 400.0 mg/kg/injection, schedule: Q01DX001 (ip), vehicle: saline with Tween-80
# [6] = endpoint: mean survival time, dose: 100.0 mg/kg/injection, schedule: Q01DX001 (ip), vehicle: saline
# [7] = endpoint: mean survival time, dose: 100.0 mg/kg/injection, schedule: Q04DX002 (ip), vehicle: saline with Tween-80
# [8] = endpoint: mean survival time, dose: 200.0 mg/kg/injection, schedule: Q04DX002 (ip), vehicle: saline with Tween-80
# [9] = endpoint: mean survival time, dose: 100.0 mg/kg/injection, schedule: Q04DX003 (ip), vehicle: saline sonified
compound,measurement,setting,value
Cc1c(N)cccc1F,T/C,"endpoint: mean survival time, dose: 50.0 mg/kg/injection, schedule: Q01DX009 (ip), vehicle: saline sonified",95 % of control
same,T/C,"endpoint: mean survival time, dose: 100.0 mg/kg/injection, schedule: Q04DX003 (ip), vehicle: saline",95 % of control
same,T/C,"endpoint: mean survival time, dose: 200.0 mg/kg/injection, schedule: Q04DX003 (ip), vehicle: saline",95 % of control
CCOC(=O)C1C(=O)N(c2ccccc2)C(=O)N1Cc1ccccc1 (stereo unspecified),T/C,"endpoint: mean survival time, dose: 12.5 mg/kg/injection, schedule: Q01DX009 (ip), vehicle: other",98 % of control
same,T/C,"endpoint: mean survival time, dose: 25.0 mg/kg/injection, schedule: Q01DX009 (ip), vehicle: other",98 % of control
same,T/C,"endpoint: mean survival time, dose: 50.0 mg/kg/injection, schedule: Q01DX009 (ip), vehicle: other",97 % of control
same,T/C,[1],95 % of control
same,T/C,[2],86 % of control
O.[Cl][Pt].[S-]CCN1CCOCC1,T/C,"endpoint: mean survival time, dose: 12.5 mg/kg/injection, schedule: Q04DX003 (ip), vehicle: distilled water + Tween-80",96 % of control
same,T/C,"endpoint: mean survival time, dose: 25.0 mg/kg/injection, schedule: Q04DX003 (ip), vehicle: distilled water + Tween-80",98 % of control
same,T/C,"endpoint: mean survival time, dose: 50.0 mg/kg/injection, schedule: Q04DX003 (ip), vehicle: distilled water + Tween-80",102 % of control
same,T/C,"endpoint: mean survival time, dose: 100.0 mg/kg/injection, schedule: Q04DX003 (ip), vehicle: distilled water + Tween-80",98 % of control
same,T/C,"endpoint: mean survival time, dose: 200.0 mg/kg/injection, schedule: Q04DX003 (ip), vehicle: distilled water + Tween-80",96 % of control
CC(=O)OCC(OC(C)=O)C(OC(C)=O)C(OC(C)=O)C(OC(C)=O)OC(C)=O (stereo unspecified),T/C,[3],94 % of control
same,T/C,[4],96 % of control
same,T/C,[5],96 % of control
CC(CC(C)O)=NCCN=C(C)CC(C)O.[Ni] (stereo unspecified),T/C,"endpoint: mean survival time, dose: 1.5 mg/kg/injection, schedule: Q01DX009 (ip), vehicle: saline with Tween-80",103 % of control
same,T/C,"endpoint: mean survival time, dose: 3.0 mg/kg/injection, schedule: Q01DX009 (ip), vehicle: saline with Tween-80",101 % of control
same,T/C,"endpoint: mean survival time, dose: 6.0 mg/kg/injection, schedule: Q01DX009 (ip), vehicle: saline with Tween-80",105 % of control
same,T/C,"endpoint: mean survival time, dose: 12.5 mg/kg/injection, schedule: Q01DX001 (ip), vehicle: saline",102 % of control
same,T/C,"endpoint: mean survival time, dose: 25.0 mg/kg/injection, schedule: Q01DX001 (ip), vehicle: saline",112 % of control
Cn1c(=O)c2c(nc(Br)n2CC(O)CF)n(C)c1=O (stereo unspecified),T/C,"endpoint: mean survival time, dose: 12.5 mg/kg/injection, schedule: Q01DX005 (ip), vehicle: distilled water + Tween-80",101 % of control
same,T/C,"endpoint: mean survival time, dose: 25.0 mg/kg/injection, schedule: Q01DX005 (ip), vehicle: distilled water + Tween-80",98 % of control
same,T/C,"endpoint: mean survival time, dose: 50.0 mg/kg/injection, schedule: Q01DX005 (ip), vehicle: distilled water + Tween-80",98 % of control
same,T/C,"endpoint: mean survival time, dose: 100.0 mg/kg/injection, schedule: Q01DX005 (ip), vehicle: distilled water + Tween-80",101 % of control
same,T/C,"endpoint: mean survival time, dose: 200.0 mg/kg/injection, schedule: Q01DX005 (ip), vehicle: distilled water + Tween-80",96 % of control
CC(C)(C)N1CCc2cc3c(cc2C1)OCO3,T/C,"endpoint: mean survival time, dose: 50.0 mg/kg/injection, schedule: Q01DX001 (ip), vehicle: saline",100 % of control
same,T/C,"endpoint: mean survival time, dose: 75.0 mg/kg/injection, schedule: Q01DX001 (ip), vehicle: saline",103 % of control
same,T/C,[6],96 % of control and 97 % of control
CC(=O)NC(C(=O)O)C(C)C.CC(=O)NC(C(=O)O)C(C)C.[NH-]C1CCCCC1[NH-].[Pt+2] (stereo unspecified),T/C,"endpoint: median survival time, dose: 3.12 mg/kg/injection, schedule: Q04DX003 (ip), vehicle: saline",102 % of control and 107 % of control and 108 % of control
same,T/C,"endpoint: median survival time, dose: 6.25 mg/kg/injection, schedule: Q04DX003 (ip), vehicle: saline",107 % of control [middle of 4 runs]
same,T/C,"endpoint: median survival time, dose: 12.5 mg/kg/injection, schedule: Q04DX003 (ip), vehicle: saline",112 % of control [middle of 4 runs]
same,T/C,"endpoint: median survival time, dose: 25.0 mg/kg/injection, schedule: Q04DX003 (ip), vehicle: saline",112 % of control [middle of 4 runs]
same,T/C,"endpoint: median survival time, dose: 50.0 mg/kg/injection, schedule: Q04DX003 (ip), vehicle: saline",122 % of control and 119 % of control
same,T/C,"endpoint: median survival time, dose: 200.0 mg/kg/injection, schedule: Q04DX003 (ip), vehicle: saline",187 % of control [middle of 4 runs]
Oc1ccc(SSc2ccc(O)cc2)cc1,T/C,[1],98 % of control
same,T/C,[2],101 % of control
same,T/C,"endpoint: mean survival time, dose: 400.0 mg/kg/injection, schedule: Q01DX009 (ip), vehicle: other",104 % of control
c1ccc2c(c1)sc1cc3c(cc12)CCCC3,T/C,"endpoint: mean survival time, dose: 7.9 mg/kg/injection, schedule: Q04DX003 (ip), vehicle: other",93 % of control
same,T/C,"endpoint: mean survival time, dose: 15.7 mg/kg/injection, schedule: Q04DX003 (ip), vehicle: other",93 % of control
same,T/C,"endpoint: mean survival time, dose: 31.3 mg/kg/injection, schedule: Q04DX003 (ip), vehicle: other",93 % of control
same,T/C,"endpoint: mean survival time, dose: 62.5 mg/kg/injection, schedule: Q04DX003 (ip), vehicle: other",93 % of control
same,T/C,"endpoint: mean survival time, dose: 125.0 mg/kg/injection, schedule: Q04DX003 (ip), vehicle: other",93 % of control
CC(=O)NNC(=O)CC(O)(c1ccccc1)c1ccccc1,T/C,[7],113 % of control
same,T/C,[8],95 % of control
CC1(C)OC2C(COC(=O)Oc3ccccc3)OC(n3cnc4c(=O)[nH]cnc43)C2O1 (stereo unspecified),T/C,[3],101 % of control
same,T/C,[7],102 % of control
same,T/C,[4],97 % of control
same,T/C,[8],94 % of control
same,T/C,[5],94 % of control
same,T/C,"endpoint: mean survival time, dose: 400.0 mg/kg/injection, schedule: Q04DX002 (ip), vehicle: saline with Tween-80",97 % of control
COC(=O)C1C2C=CC(C2)C1C(=O)O (stereo unspecified),T/C,[6],100 % of control
same,T/C,"endpoint: mean survival time, dose: 200.0 mg/kg/injection, schedule: Q01DX001 (ip), vehicle: saline",98 % of control
same,T/C,"endpoint: mean survival time, dose: 400.0 mg/kg/injection, schedule: Q01DX001 (ip), vehicle: saline",103 % of control
CC1(C)N=C(N)N=C(N)N1c1ccc(CCCCc2ccc(Cl)c(S(=O)(=O)F)c2)c(Cl)c1,T/C,"endpoint: mean survival time, dose: 2.4 mg/kg/injection, schedule: Q01DX009 (ip), vehicle: saline with Tween-80",101 % of control
same,T/C,"endpoint: mean survival time, dose: 3.6 mg/kg/injection, schedule: Q01DX009 (ip), vehicle: saline with Tween-80",95 % of control
same,T/C,"endpoint: mean survival time, dose: 5.4 mg/kg/injection, schedule: Q01DX009 (ip), vehicle: saline with Tween-80",104 % of control
same,T/C,"endpoint: mean survival time, dose: 8.0 mg/kg/injection, schedule: Q01DX009 (ip), vehicle: saline with Tween-80",106 % of control
same,T/C,"endpoint: mean survival time, dose: 12.0 mg/kg/injection, schedule: Q01DX009 (ip), vehicle: saline with Tween-80",108 % of control
same,T/C,"endpoint: mean survival time, dose: 18.0 mg/kg/injection, schedule: Q01DX009 (ip), vehicle: saline with Tween-80",117 % of control
same,T/C,[9],90 % of control
N#CSCc1ccc(CSC#N)c(Br)c1,T/C,"endpoint: mean survival time, dose: 75.0 mg/kg/injection, schedule: Q04DX003 (ip), vehicle: saline",102 % of control
same,T/C,"endpoint: mean survival time, dose: 150.0 mg/kg/injection, schedule: Q04DX003 (ip), vehicle: saline",98 % of control
same,T/C,"endpoint: mean survival time, dose: 300.0 mg/kg/injection, schedule: Q04DX003 (ip), vehicle: saline",101 % of control
COc1ccc(C(=O)CC(=O)NC(=O)c2ccc(OC)cc2)cc1,T/C,"endpoint: mean survival time, dose: 100.0 mg/kg/injection, schedule: Q01DX001 (ip), vehicle: other",96 % of control
same,T/C,"endpoint: mean survival time, dose: 200.0 mg/kg/injection, schedule: Q01DX001 (ip), vehicle: other",97 % of control
same,T/C,"endpoint: mean survival time, dose: 400.0 mg/kg/injection, schedule: Q01DX001 (ip), vehicle: other",96 % of control
O=C(N/N=C/c1ccccc1O)c1ccccc1O,T/C,"endpoint: mean survival time, dose: 100.0 mg/kg/injection, schedule: Q01DX009 (ip), vehicle: saline with Tween-80",93 % of control
same,T/C,"endpoint: mean survival time, dose: 200.0 mg/kg/injection, schedule: Q01DX009 (ip), vehicle: saline with Tween-80",95 % of control
same,T/C,"endpoint: mean survival time, dose: 400.0 mg/kg/injection, schedule: Q01DX009 (ip), vehicle: saline with Tween-80",93 % of control
Cc1ccc(S(=O)(=O)OCC(O)C2OCOC3COCOC32)cc1 (stereo unspecified),T/C,"endpoint: mean survival time, dose: 100.0 mg/kg/injection, schedule: Q01DX001 (ip), vehicle: Klucel (hydroxypropylcellulose) (HPC)",101 % of control
same,T/C,"endpoint: mean survival time, dose: 200.0 mg/kg/injection, schedule: Q01DX001 (ip), vehicle: Klucel (hydroxypropylcellulose) (HPC)",103 % of control
same,T/C,"endpoint: mean survival time, dose: 400.0 mg/kg/injection, schedule: Q01DX001 (ip), vehicle: Klucel (hydroxypropylcellulose) (HPC)",98 % of control
same,T/C,"endpoint: mean survival time, dose: 600.0 mg/kg/injection, schedule: Q01DX001 (ip), vehicle: Klucel (hydroxypropylcellulose) (HPC)",93 % of control
O=C1/C(=C\c2ccc(Cl)cc2)SC(=S)N1/N=C/c1ccc(Cl)cc1,T/C,"endpoint: mean survival time, dose: 25.0 mg/kg/injection, schedule: Q01DX001 (ip), vehicle: saline with Tween-80",97 % of control
same,T/C,"endpoint: mean survival time, dose: 50.0 mg/kg/injection, schedule: Q01DX001 (ip), vehicle: saline with Tween-80",94 % of control
same,T/C,[3],90 % of control
same,T/C,[4],87 % of control
CC(C)C12CCC(=O)C=C1CCCC2O (stereo unspecified),T/C,[9],100 % of control
same,T/C,"endpoint: mean survival time, dose: 200.0 mg/kg/injection, schedule: Q04DX003 (ip), vehicle: saline sonified",100 % of control
same,T/C,"endpoint: mean survival time, dose: 400.0 mg/kg/injection, schedule: Q04DX003 (ip), vehicle: saline sonified",97 % of control

# — PubChem BioAssay AID256 (DTP/NCI, 2004)
